Laboratory results published in patent US9718782B2, “TrkA kinase inhibitors, compositions and methods thereof” (MERCK SHARP & DOHME CORP, priority 2013, dated 2017).

Molecular target: T1, TrkA receptor (Homo sapiens, UniProt P04629)
T1 construct: host or cells: U2OS (PathHunter, 'TrkA p75' cells)
Experiment: DiscoverX PathHunter TrkA functional assay (NGF-stimulated U2OS cells)
Assay type: cell-based
Settings: U2OS cells expressing TrkA-Prolink fusion and Shc1-EA; compound 1 hour, then EC80 NGF 3 hours; luminescence
Protocol: TrkA functional activity was measured using a DiscoverX PathHunter assay. In this assay, U2OS cells are express TrkA receptor as a fusion with the weakly complementing fragment of B-galactosidase, which DiscoverX calls “Prolink (PK)”; additionally, Shcl is fused with a larger fragment, which is called “Enzyme Acceptor (EA)”. Activation of the TrkA receptor, upon NGF addition, results in the kinase domain being phosphorylated, resulting in subsequent recruitment of Shcl-EA protein. That recruitment results in an active B-galactosidase enzyme that is detected by addition of a chemiluminescent substrate.
All reagents were purchased from DiscoverX, except for the receptor agonists (NGF, BDNF, NT3) which were purchased from Peprotech. Cells were expanded and frozen into cryovials (TrkA p75 @passage 13, 1.5×10^7 cells/vial; TrkC p75 @passage 11, 1.5×10^7 cells/vial in InVitrogen Recovery Cell Freezing media), and stored in the vapor phase of liquid nitrogen, and thawed immediately before use. Thawed cells were added to a 384-well plate (BD Falcon 384-well white/clear, TC surface 120 uL assay plates (353963), 20 uL of 0.375e6 cells/mL=>7500 cells/well), and allowed to incubate overnight. Compound (10 mM starting dose: 202.5 nL compound yielding 0.81% DMSO final in total assay volume and starting doses 81 uM) was added the following morning and allowed to incubate on cells for 1 hour. Then, 5 uL EC80 of agonist (NGF for TrkA; BDNF for TrkB; NT3 for TrkC) was added and allowed to incubate for 3 hours at room temperature. DiscoverX PathHunter detection reagent is added (12 uL to plate and components diluted in parts as per kit instructions) and the plate is further incubated for 1 hour in the dark. The plate is read via luminescence on the Perkin Elmer Envision.

T1 sequence (P04629 33-796): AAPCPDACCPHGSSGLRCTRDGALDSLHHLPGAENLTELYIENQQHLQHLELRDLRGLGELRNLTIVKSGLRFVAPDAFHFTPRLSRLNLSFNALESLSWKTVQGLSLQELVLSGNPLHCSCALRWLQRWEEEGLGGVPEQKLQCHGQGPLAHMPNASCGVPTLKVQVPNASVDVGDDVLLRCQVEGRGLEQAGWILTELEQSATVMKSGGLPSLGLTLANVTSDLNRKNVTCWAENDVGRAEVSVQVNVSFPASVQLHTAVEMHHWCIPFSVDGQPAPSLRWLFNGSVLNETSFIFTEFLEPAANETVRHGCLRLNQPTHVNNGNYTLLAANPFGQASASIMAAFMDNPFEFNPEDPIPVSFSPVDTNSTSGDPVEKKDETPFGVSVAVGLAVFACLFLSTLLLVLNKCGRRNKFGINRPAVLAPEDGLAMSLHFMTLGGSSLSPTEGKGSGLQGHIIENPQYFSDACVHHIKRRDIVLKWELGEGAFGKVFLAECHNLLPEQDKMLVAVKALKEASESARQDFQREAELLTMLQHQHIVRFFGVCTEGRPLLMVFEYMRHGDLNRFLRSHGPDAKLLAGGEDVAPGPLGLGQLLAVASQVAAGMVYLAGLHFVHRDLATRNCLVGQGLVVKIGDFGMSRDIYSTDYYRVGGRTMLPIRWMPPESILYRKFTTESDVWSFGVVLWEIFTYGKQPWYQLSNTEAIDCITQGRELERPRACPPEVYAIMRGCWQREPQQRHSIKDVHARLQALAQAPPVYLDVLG

Row | IC50 [nM] | Compound
1 | 130 | O=C(Nc1cccc(-c2nnc3n2CCC3)c1)NC1c2ccccc2-c2ccccc21 [Compound 43, 1-[3-(6,7-dihydro-5H-pyrrolo[2,1-c] [1,2,4]triazol-3-yl)phenyl]-3-(9H-fluoren-9-yl)urea]
2 | 410 | CCn1cnnc1-c1cccc(NC(=O)NC2c3ccccc3-c3ccccc32)c1 [Compound 44, 1-[3-(4-ethyl-4H-1,2,4-triazol-3-yl)phenyl]-3-(9H-fluoren-9-yl)urea]
3 | 1400 | O=C(Nc1cccc(-c2nc(C3CC3)n[nH]2)c1)NC1c2ccccc2-c2ccccc21 [Compound 45, 1-[3-(3-cyclopropyl-1H-1,2,4-triazol-5-yl)phenyl]-3-(9H-fluoren-9-yl)urea]
4 | 660 | Cc1nnc(-c2cccc(NC(=O)NC3c4ccccc4-c4ccccc43)c2)o1 [Compound 46, 1-(9H-fluoren-9-yl)-3-[3-(5-methyl-1,3,4-oxadiazol-2-yl)phenyl]urea]
5 | 970 | Cc1nnc(-c2cccc(NC(=O)NC3c4ccccc4-c4ccccc43)c2)s1 [Compound 47, 1-(9H-fluoren-9-yl)-3-[3-(5-methyl-1,3,4-thiadiazol-2-yl)phenyl]urea]
6 | 360 | O=C(Nc1cccc(-c2nnc[nH]2)c1)NC1c2ccccc2-c2ccccc21 [Compound 48, 1-(9H-fluoren-9-yl)-3-[3-(4H-1,2,4-triazol-3-yl)phenyl]urea]
7 | 2800 | O=C(Nc1cccc(-c2nnco2)c1)NC1c2ccccc2-c2ccccc21 [Compound 49, 1-(9H-fluoren-9-yl)-3-[3-(1,3,4-oxadiazol-2-yl)phenyl]urea]
8 | 880 | O=C(Nc1cccnc1-c1ccncc1)NC1c2ccccc2-c2ccccc21 [Compound 50, 1-(2,4′-bipyridin-3-yl)-3-(9H-fluoren-9-yl)urea]
9 | 3000 | O=C(Nc1cccnc1-c1cccnc1)NC1c2ccccc2-c2ccccc21 [Compound 51, 1-(2,3′-bipyridin-3-yl)-3-(9H-fluoren-9-yl)urea]
10 | 100 | O=C(Nc1cccnc1-c1ccc(F)cc1)NC1c2ccccc2-c2ccccc21 [Compound 52, 1-(9H-fluoren-9-yl)-3-[2-(4-fluorophenyl)pyridin-3-yl]urea]
11 | 540 | O=C(Nc1cccnc1-c1ccnc(F)c1)NC1c2ccccc2-c2ccccc21 [Compound 53, 1-(9H-fluoren-9-yl)-3-(2′-fluoro-2,4′-bipyridin-3-yl)urea]
12 | 2800 | O=C(Nc1cccnc1-c1ccco1)NC1c2ccccc2-c2ccccc21 [Compound 54, 1-(9H-fluoren-9-yl)-3-(2-furan-2-ylpyridin-3-yl)urea]
13 | 390 | O=C(Nc1cccnc1-c1ccoc1)NC1c2ccccc2-c2ccccc21 [Compound 55, 1-(9H-fluoren-9-yl)-3-(2-furan-3-ylpyridin-3-yl)urea]
14 | 410 | Cn1nc(-c2ccccc2)cc1NC(=O)NC1c2ccccc2-c2ccccc21 [Compound 56, 1-(9H-fluoren-9-yl)-3-(1-methyl-3-phenyl-1H-pyrazol-5-yl)urea]
15 | 1300 | O=C(Nc1cccc(-n2cnnn2)c1)NC1c2ccccc2-c2ccccc21 [Compound 57, 1-(9H-fluoren-9-yl)-3-[3-(1H-tetrazol-1-yl)phenyl]urea]
16 | 190 | Cc1nc(-c2ccccc2)c(NC(=O)NC2c3ccccc3-c3ccccc32)n1C [Compound 58, 1-(1,2-dimethyl-4-phenyl-1H-imidazol-5-yl)-3-(9H-fluoren-9-yl)urea]
17 | 500 | Cc1nc(-c2ccccc2)c(NC(=O)NC2c3ccccc3-c3ccccc32)[nH]1 [Compound 59, 1-(9H-fluoren-9-yl)-3-(2-methyl-4-phenyl-1H-imidazol-5-yl)urea]
18 | 560 | CCc1nnc(-c2cccc(NC(=O)NC3c4ccccc4-c4ccccc43)c2)o1 [Compound 60, 1-[3-(5-ethyl-1,3,4-oxadiazol-2-yl)phenyl]-3-(9H-fluoren-9-yl)urea]
19 | 670 | CN(C)C(=O)c1cccc(NC(=O)NC2c3ccccc3-c3ccccc32)c1 [Compound 61, 3-[(9H-fluoren-9-ylcarbamoyl)amino]-N,N-dimethylbenzamide]
20 | 1300 | Cc1cnc(-c2cccc(NC(=O)NC3c4ccccc4-c4ccccc43)c2)o1 [Compound 62, 1-(9H-fluoren-9-yl)-3-[3-(5-methyl-1,3-oxazol-2-yl)phenyl]urea]
21 | 96 | Cn1ccnc1-c1cccc(NC(=O)NC2c3ccccc3-c3ccccc32)c1 [Compound 63, 1-(9H-fluoren-9-yl)-3-[3-(l-methyl-1H-imidazol-2-yl)phenyl]urea]

Row | IC50 [nM] | Compound
22 | 330 | Cn1nnnc1-c1cccc(NC(=O)NC2c3ccccc3-c3ccccc32)c1 [Compound 64, 1-(9H-fluoren-9-yl)-3-[3-(l-methyl-1H-tetrazol-5-yl)phenyl]urea]
23 | 310 | Cc1nc(-c2cccc(NC(=O)NC3c4ccccc4-c4ccccc43)c2)oc1C [Compound 65, 1-[3-(4,5-dimethyl-1,3-oxazol-2-yl)phenyl]-3-(9H-fluoren-9-yl)urea]
24 | 3500 | O=C(Nc1cccnc1)NC1c2ccccc2-c2ccccc21 [Compound 66, 1-(9H-fluoren-9-yl)-3-pyridin-3-ylurea]
25 | 4800 | O=C(Nc1ncnn1-c1ccccc1)NC1c2ccccc2-c2ccccc21 [Compound 67, 1-(9H-fluoren-9-yl)-3-(1-phenyl-1H-1,2,4-triazol-5-yl)urea]
26 | 970 | O=C(Nc1c(-c2ccco2)nc2ccccn12)NC1c2ccccc2-c2ccccc21 [Compound 68, 1-(9H-fluoren-9-yl)-3-(2-furan-2-ylimidazo[1,2-a]pyridin-3-yl)urea]
27 | 770 | O=C(Nc1c(-c2ccncc2)nc2ccccn12)NC1c2ccccc2-c2ccccc21 [Compound 69, 1-(9H-fluoren-9-yl)-3-(2-pyridin-4-ylimidazo[1,2-a]pyridin-3-yl)urea]
28 | 2200 | O=C(Nc1conc1-c1ccccc1)NC1c2ccccc2-c2ccccc21 [Compound 70, 1-(9H-fluoren-9-yl)-3-(3-phenylisoxazol-4-yl)urea]
29 | 120 | Cc1cnc(-c2ccccc2)c(NC(=O)NC2c3ccccc3-c3ccccc32)c1 [Compound 71, 1-(9H-fluoren-9-yl)-3-(5-methyl-2-phenylpyridin-3-yl)urea]
30 | 1400 | O=C(Nc1cncc(-c2cccnc2)c1)NC1c2ccccc2-c2ccccc21 [Compound 72, 1-(3,3′-bipyridin-5-yl)-3-(9H-fluoren-9-yl)urea]
31 | 2800 | Cn1nccc1-c1cncc(NC(=O)NC2c3ccccc3-c3ccccc32)c1 [Compound 73, 1-(9H-fluoren-9-yl)-3-[5-(1-methyl-1H-pyrazol-5-yl)pyridin-3-yl]urea]
32 | 990 | Cn1ncnc1-c1cncc(NC(=O)NC2c3ccccc3-c3ccccc32)c1 [Compound 74, 1-(9H-fluoren-9-yl)-3-[5-(1-methyl-1H-1,2,4-triazol-5-yl)pyridin-3-yl]urea]
33 | 190 | O=C(Nc1cccnc1-c1cccc(F)c1)NC1c2ccccc2-c2ccccc21 [Compound 75, 1-(9H-fluoren-9-yl)-3-[2-(3-fluorophenyl)pyridin-3-yl]urea]
34 | 320 | O=C(Nc1cccnc1-c1ccccc1F)NC1c2ccccc2-c2ccccc21 [Compound 76, 1-(9H-fluoren-9-yl)-3-[2-(2-fluorophenyl)pyridin-3-yl]urea]
35 | 1200 | Cc1ccccc1-c1ncccc1NC(=O)NC1c2ccccc2-c2ccccc21 [Compound 77, 1-(9H-fluoren-9-yl)-3-[2-(2-methylphenyl)pyridin-3-yl]urea]
36 | 520 | Cc1nc(NC(=O)NC2c3ccccc3-c3ccccc32)n(-c2ccccc2)n1 [Compound 78, 1-(9H-fluoren-9-yl)-3-(3-methyl-1-phenyl-1H-1,2,4-triazol-5-yl)urea]
37 | 73 | Cn1ncnc1-c1cccc(NC(=O)NC2c3ccccc3-c3ccccc32)c1 [Compound 79, 1-(9H-fluoren-9-yl)-3-[3-(1-methyl-1H-1,2,4-triazol-5-yl)phenyl]urea]
38 | 670 | O=C(Nc1ccnc(-c2ccccc2)c1)NC1c2ccccc2-c2ccccc21 [Compound 80, 1-(9H-fluoren-9-yl)-3-(2-phenylpyridin-4-yl)urea]
39 | 3900 | Cc1nc(-c2ccccc2)c(NC(=O)NC2c3ccccc3-c3ccccc32)o1 [Compound 81, 1-(9H-fluoren-9-yl)-3-(2-methyl-4-phenyl-1,3-oxazol-5-yl)urea]
40 | 260 | Cn1ccnc1-c1cncc(NC(=O)NC2c3ccccc3-c3ccccc32)c1 [Compound 82, 1-(9H-fluoren-9-yl)-3-[5-(1-methyl-1H-imidazol-2-yl)pyridin-3-yl]urea]
41 | 3000 | O=C(Nc1cccnc1-n1cccn1)NC1c2ccccc2-c2ccccc21 [Compound 83, 1-(9H-fluoren-9-yl)-3-[2-(1H-pyrazol-1-yl)pyridin-3-yl]urea]
42 | 47 | O=C(Nc1cc(F)cnc1-c1ccccc1)NC1c2ccccc2-c2ccccc21 [Compound 84, 1-(9H-fluoren-9-yl)-3-(5-fluoro-2-phenylpyridin-3-yl)urea]
